Some results are limits rather than exact numbers.

Results on one compound are retold here after patent US7235267B1, “Brain cell or nerve cell-protecting agents comprising medicinal ginseng” (priority 1999, dated 2007).

Data set [1] concerns SH-SP rats with MCA permanent occlusion. Conditions: cited from earlier work.
The conditions of data set [2]: intravenously administered small amount (prior application); cited from earlier work.
The conditions of data set [3]: intracerebroventricular administration; cited from earlier work.
The test system of data set [4] is primary cultured myocardial cells. In words: Myocardial cell survival in glucose-free, serum-free medium (α-actinin immunoblotting). The format is cell-based, rat. The procedure:
We have investigated whether or not ginsenoside Rb1 could actually suppress myocardial cell death in the concentration range for increasing the expression of Bcl-xL protein. For that purpose, for example, the protective effect of ginsenoside Rb1 on myocardial cells was examined when the primary cultured myocardial cells were cultured without addition of glucose. Ginsenoside Rb1 in the concentration range from 0 to 1 ng/ml was added to myocardial cells in serum-free DMEM without containing glucose, and the myocardial cells were cultured for 4 or 5 days. Subsequently, the samples for electrophoresis were prepared, and immunoblotting (Western blotting) was performed by using anti-striated muscle specific α-actinin antibody.
We (the present inventors) investigated whether ginsenoside Rb1 could actually suppress myocardial cell death in the concentration range for increasing the expression of Bcl-xL protein or not. For that purpose, for example, the protective effect of ginsenoside Rb1 on myocardial cells was examined when the primary cultured myocardial cells were cultured without addition of glucose. Ginsenoside Rb1 in the concentration range from 0 to 1 ng/ml was added to serum-free DMEM without containing glucose, and myocardial cells were cultured for 4 or 5 days. Subsequently, the sample for electrophoresis was prepared, and immunoblotting (Western blotting) was performed by using anti-striated muscle specific α-actinin antibody. […] Statistical analyses were conducted by ANOVA+Scheffe's post hoc test.
A general note: A western blot detects proteins with antibodies after separation by electrophoresis.

In the case of `CC(C)=CCC[C@](C)(O[C@@H]1O[C@H](CO[C@@H]2O[C@H](CO)[C@@H](O)[C@H](O)[C@H]2O)[C@@H](O)[C@H](O)[C@H]1O)[C@H]1CC[C@]2(C)[C@@H]1[C@H](O)C[C@@H]1[C@@]3(C)CC[C@H](O[C@@H]4O[C@H](CO)[C@@H](O)[C@H](O)[C@H]4O[C@@H]4O[C@H](CO)[C@@H](O)[C@H](O)[C@H]4O)C(C)(C)[C@@H]3CC[C@]12C` [ginsenoside Rb1], the “cerebral infarction (infarcted area in the cerebral cortex)” value in data set [1] (intracerebroventricular administration after permanent MCA occlusion) is listed as “significant reduction”. Besides, the “secondary lesion (degeneration) of the thalamus” value in data set [1] (intravenous 6 or 60 μg/day) is listed as “significantly inhibits”. In addition, the “mean ratio of cerebrocortical infarction compared with saline group” value in data set [1] (intravenous ginsenoside Rb1 (prior applications)) is listed as ≤ 50%. For the same compound, in data set [1] (intravenous infusion for 28 days), the “cerebral vessels destroyed after MCA permanent occlusion” value is “regenerated and reconstructed”. Besides, the “cerebral infarct area relative to non-administered group” value in data set [1] (repetitive or continuous intravenous 6 μg or 60 μg/day) is listed as “about ¼”. Further, the “volume/size of cerebral infarct lesion relative to saline (non-administered) group” value in data set [1] (repetitive or continuous intravenous 6 or 60 μg/day for 28 days after MCA permanent occlusion (prior applications)) was “about ¼”. In addition, the “reduction of the volume of the cerebral infarct lesions vs control group” value in data set [1] (repetitive or continuous intravenous low doses after permanent MCA occlusion) is ~75%. In addition, the “transfer into the brain and nervous systems” value in data set [2] is “transferred quickly”. Besides, the “brain temperature, cerebral blood flow or blood pressure” value in data set [3] is “no effects”. In addition, the “protective effect on myocardial cells” value in data set [4] (0.01 fg/ml, n=3) is “significant effects are not noted”. Further, the “striated muscle-specific α-actinin by immunoblotting (myocardial cell survival)” value in data set [4] (1 fg/ml to 10^4 fg/ml, glucose-free serum-free medium, 4-5 days) is reported as “significantly detected”. The “concentrations promoting survival of myocardial cells” value in data set [4] (FIG. 26) is 1-10^4 fg/ml.
